Source: ChEMBL document CHEMBL1201862, “PubChem BioAssay data set” (2004)
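All cell lines were grown in 96-well plates and treated with compound for 48 hours. GI50 = concentration required for 50% inhibition of growth.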 Activity calls are given as the source filed them. No stated cut-off is given here; in the data, active = GI50 up to about 1.1 µM and inactive = higher.

What was measured:
Assay in all cases: inhibition of tumour cell growth, NCI panel, 48 h
786-0 = system: 786-0
CCRF-CEM = system: CCRF-CEM
HCT-116 = system: HCT-116
HCT-15 = system: HCT-15
HOP-62 = system: HOP-62
M14 = system: M14
MOLT-4 = system: MOLT-4
Malme-3M = system: Malme-3M
OVCAR-4 = system: OVCAR-4
OVCAR-8 = system: OVCAR-8
SF-268 = system: SF-268
SF-539 = system: SF-539
SW-620 = system: SW-620
UACC-257 = system: UACC-257
UO-31 = system: UO-31
HOP-92 = system: HOP-92
RXF 393 = system: RXF 393

Compound	GI50 (786-0)	GI50 (CCRF-CEM)	GI50 (HCT-116)	GI50 (HCT-15) [µM]	GI50 (HOP-62)	GI50 (M14)	GI50 (MOLT-4)	GI50 (Malme-3M)	GI50 (OVCAR-4)	GI50 (OVCAR-8)	GI50 (SF-268)	GI50 (SF-539)	GI50 (SW-620)	GI50 (UACC-257)	GI50 (UO-31)	GI50 (HOP-92)	GI50 (RXF 393)
CC(=O)Nc1ccc(C(=O)N2N=C(C)/C(=C\c3c(O)ccc4ccccc34)C2=O)cc1	> 100 µM (inactive)	26.8 µM (inactive)	93.5 µM (inactive)	18.4	> 100 µM (inactive)	85.1 µM (inactive)	31.7 µM (inactive)	24 µM (inactive)	> 100 µM (inactive)	88.1 µM (inactive)	56 µM (inactive)	56.4 µM (inactive)	75.2 µM (inactive)	> 100 µM (inactive)	39 µM (inactive)	–	–
O=S(=O)(N/N=C/c1ccc(/C=N/NS(=O)(=O)c2ccccc2)cc1)c1ccccc1	50.6 µM (inactive)	30.3 µM (inactive)	57.3 µM (inactive)	44.1	44.9 µM (inactive)	> 100 µM (inactive)	21.5 µM (inactive)	> 100 µM (inactive)	63.7 µM (inactive)	42 µM (inactive)	> 100 µM (inactive)	29 µM (inactive)	–	53.2 µM (inactive)	63.2 µM (inactive)	31.8 µM (inactive)	27.7 µM (inactive)
Cc1cc(C)c(C2=NO[C@@H]3C(=O)N(c4ccc(Cc5ccc(N6C(=O)[C@H]7C(c8c(C)cc(C)cc8C)=NO[C@H]7C6=O)cc5)cc4)C(=O)[C@H]23)c(C)c1	> 100 µM (inactive)	> 100 µM (inactive)	–	> 100	> 100 µM (inactive)	64.4 µM (inactive)	> 100 µM (inactive)	> 100 µM (inactive)	> 100 µM (inactive)	> 100 µM (inactive)	> 100 µM (inactive)	> 100 µM (inactive)	> 100 µM (inactive)	68.4 µM (inactive)	> 100 µM (inactive)	> 100 µM (inactive)	> 100 µM (inactive)
CCOP(=O)(OCC)C1C(=O)O[C@H]2CCCC[C@@H]12 (some centres not stated)	> 100 µM (inactive)	> 100 µM (inactive)	> 100 µM (inactive)	> 100	> 100 µM (inactive)	> 100 µM (inactive)	> 100 µM (inactive)	> 100 µM (inactive)	> 100 µM (inactive)	> 100 µM (inactive)	> 100 µM (inactive)	> 100 µM (inactive)	> 100 µM (inactive)	> 100 µM (inactive)	–	–	> 100 µM (inactive)
Cc1cc(C)n(-c2c(O)ccc(O)c2-n2nc(C)cc2C)n1	> 100 µM (inactive)	> 100 µM (inactive)	–	> 100	> 100 µM (inactive)	> 100 µM (inactive)	> 100 µM (inactive)	> 100 µM (inactive)	> 100 µM (inactive)	> 100 µM (inactive)	> 100 µM (inactive)	> 100 µM (inactive)	> 100 µM (inactive)	–	> 100 µM (inactive)	> 100 µM (inactive)	> 100 µM (inactive)
CC1=NN(C(=O)Cc2ccccc2)C(=O)/C1=C\c1ccccc1O	> 100 µM (inactive)	> 100 µM (inactive)	> 100 µM (inactive)	> 100	> 100 µM (inactive)	> 100 µM (inactive)	> 100 µM (inactive)	> 100 µM (inactive)	> 100 µM (inactive)	> 100 µM (inactive)	> 100 µM (inactive)	> 100 µM (inactive)	> 100 µM (inactive)	> 100 µM (inactive)	> 100 µM (inactive)	> 100 µM (inactive)	> 100 µM (inactive)
Cn1cc(NC(=O)c2cc(NC(=O)CCCCCCCCCCC(=O)Nc3cc(C(=O)Nc4cc(C(=O)NCCC(=N)N)n(C)c4)n(C)c3)cn2C)cc1C(=O)NCCC(=N)N	23.6 µM (inactive)	50 µM (inactive)	27 µM (inactive)	36.6	25.9 µM (inactive)	28.2 µM (inactive)	45.9 µM (inactive)	2.18 µM (inactive)	41.4 µM (inactive)	20.3 µM (inactive)	30.6 µM (inactive)	47.6 µM (inactive)	17.9 µM (inactive)	7.8 µM (inactive)	> 100 µM (inactive)	–	17.8 µM (inactive)
CC1=CC(N2C(=O)C(C)=CC2O)NC1=O (configuration not stated)	> 100 µM (inactive)	–	> 100 µM (inactive)	–	> 100 µM (inactive)	> 100 µM (inactive)	–	45.8 µM (inactive)	> 100 µM (inactive)	> 100 µM (inactive)	> 100 µM (inactive)	> 100 µM (inactive)	> 100 µM (inactive)	> 100 µM (inactive)	> 100 µM (inactive)	> 100 µM (inactive)	> 100 µM (inactive)
Cc1cc(N(CCC#N)CCC#N)ccc1/C=C1/CN(N2C(=O)/C(=C/c3ccc(N(CCC#N)CCC#N)cc3C)N=C2c2ccccc2)C(c2ccccc2)=N1	54.3 µM (inactive)	> 100 µM (inactive)	> 100 µM (inactive)	> 100	34.6 µM (inactive)	90.4 µM (inactive)	> 100 µM (inactive)	> 100 µM (inactive)	> 100 µM (inactive)	> 100 µM (inactive)	> 100 µM (inactive)	99.5 µM (inactive)	> 100 µM (inactive)	> 100 µM (inactive)	> 100 µM (inactive)	44.6 µM (inactive)	28.4 µM (inactive)
O=c1/c(=C/c2ccccc2O)sc2nc3ccccc3n12	53.2 µM (inactive)	16.3 µM (inactive)	47.3 µM (inactive)	21.6	–	47.9 µM (inactive)	18.1 µM (inactive)	32.2 µM (inactive)	80.4 µM (inactive)	45 µM (inactive)	16.6 µM (inactive)	35.5 µM (inactive)	40.5 µM (inactive)	62.7 µM (inactive)	46.8 µM (inactive)	24.4 µM (inactive)	21.9 µM (inactive)
CN1c2ccccc2N(C(=O)c2ccc(Cl)cc2)C(CC(=O)O)c2cccn21 (configuration not stated)	> 100 µM (inactive)	> 100 µM (inactive)	–	> 100	> 100 µM (inactive)	> 100 µM (inactive)	> 100 µM (inactive)	> 100 µM (inactive)	> 100 µM (inactive)	> 100 µM (inactive)	> 100 µM (inactive)	> 100 µM (inactive)	> 100 µM (inactive)	> 100 µM (inactive)	> 100 µM (inactive)	> 100 µM (inactive)	> 100 µM (inactive)
O=c1nc(/C=C/c2ccccc2Cl)cc2n1CCN2CCO	> 100 µM (inactive)	50.4 µM (inactive)	> 100 µM (inactive)	> 100	> 100 µM (inactive)	> 100 µM (inactive)	75.9 µM (inactive)	> 100 µM (inactive)	80.2 µM (inactive)	> 100 µM (inactive)	67.6 µM (inactive)	> 100 µM (inactive)	> 100 µM (inactive)	–	> 100 µM (inactive)	> 100 µM (inactive)	95.1 µM (inactive)
COc1nc2c(nc(N)n2C2OCC(O)C(O)C2O)c(=O)n1C (configuration not stated)	> 100 µM (inactive)	> 100 µM (inactive)	> 100 µM (inactive)	–	> 100 µM (inactive)	> 100 µM (inactive)	> 100 µM (inactive)	> 100 µM (inactive)	> 100 µM (inactive)	> 100 µM (inactive)	> 100 µM (inactive)	> 100 µM (inactive)	> 100 µM (inactive)	> 100 µM (inactive)	> 100 µM (inactive)	> 100 µM (inactive)	> 100 µM (inactive)
COC(=O)CCSC(=O)Nc1ccc(/N=N/c2ccccc2)cc1	57.7 µM (inactive)	50.1 µM (inactive)	59.3 µM (inactive)	36.1	> 100 µM (inactive)	70 µM (inactive)	27.2 µM (inactive)	> 100 µM (inactive)	30.4 µM (inactive)	45.8 µM (inactive)	> 100 µM (inactive)	> 100 µM (inactive)	> 100 µM (inactive)	56.5 µM (inactive)	51.3 µM (inactive)	95.7 µM (inactive)	> 100 µM (inactive)
Brc1ccc2ns[s+]c2c1	98.2 µM (inactive)	1.26 µM (inactive)	2.7 µM (inactive)	0.343	5.05 µM (inactive)	0.45 µM (active)	4.65 µM (inactive)	33.5 µM (inactive)	> 20.9 µM (inactive)	> 43.9 µM (inactive)	2.58 µM (inactive)	4.29 µM (inactive)	8.63 µM (inactive)	14.9 µM (inactive)	4.36 µM (inactive)	6.73 µM (inactive)	> 100 µM (inactive)
CC1(C)OC2C(=O)OC(COCc3ccccc3)C2O1 (configuration not stated)	> 100 µM (inactive)	> 100 µM (inactive)	> 100 µM (inactive)	> 100	> 100 µM (inactive)	> 100 µM (inactive)	> 100 µM (inactive)	> 100 µM (inactive)	> 100 µM (inactive)	> 100 µM (inactive)	> 100 µM (inactive)	> 100 µM (inactive)	> 100 µM (inactive)	> 100 µM (inactive)	> 100 µM (inactive)	> 100 µM (inactive)	> 100 µM (inactive)
Cc1cc(CC(=O)NCCO)n(CCO)c(=O)c1	> 100 µM (inactive)	> 100 µM (inactive)	> 100 µM (inactive)	–	> 100 µM (inactive)	> 100 µM (inactive)	> 100 µM (inactive)	> 100 µM (inactive)	> 100 µM (inactive)	> 100 µM (inactive)	> 100 µM (inactive)	> 100 µM (inactive)	> 100 µM (inactive)	> 100 µM (inactive)	> 100 µM (inactive)	> 100 µM (inactive)	> 100 µM (inactive)
